# Experimental data published in paper PMC9299836 (eLife, 2022).
# “And” between values parts separate entries of the source, which are not always exact repeats. Equal entries are not always repeated.
# Legend:
# [1] = biological target: T1, mGluR2 (Mus musculus, UniProt Q14BI2, A548F); experiment: Live-cell FRET, azi-CRD (cysteine-rich domain) sensor in HEK293T cells
# [2] = biological target: mGluR2 (Mus musculus, UniProt Q14BI2); experiment: Functional calcium imaging, SNAP-mGluR2 (no FLAG-tag) with chimeric G protein Gqo5 in HEK293T cells; assay type: cell-based; set-up: Full length mGluR2 construct with an amber codon (TAG) mutation of amino acid A548 (azi-CRD) or N-terminal SNAP-tag (SNAP-mGluR2); host or cells: HEK293T; settings: for Intracellular Ca2+ Response (normalized to 1mM glutamate), Mean: Glutamate + 15nM MNI-137
# [3] = biological target: T1, mGluR2; experiment: Single-molecule FRET (SiMPull) of azi-CRD: population histograms and state occupancy; settings: N 3;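 note: Cy3/Cy5-labelled receptor from HEK293T cell lysate captured on anti-FLAG surfaces, apparent FRET efficiency computed from donor and acceptor intensities with crosstalk correction, pooled into population histograms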
# T1 sequence (Q14BI2 19-872 A548F): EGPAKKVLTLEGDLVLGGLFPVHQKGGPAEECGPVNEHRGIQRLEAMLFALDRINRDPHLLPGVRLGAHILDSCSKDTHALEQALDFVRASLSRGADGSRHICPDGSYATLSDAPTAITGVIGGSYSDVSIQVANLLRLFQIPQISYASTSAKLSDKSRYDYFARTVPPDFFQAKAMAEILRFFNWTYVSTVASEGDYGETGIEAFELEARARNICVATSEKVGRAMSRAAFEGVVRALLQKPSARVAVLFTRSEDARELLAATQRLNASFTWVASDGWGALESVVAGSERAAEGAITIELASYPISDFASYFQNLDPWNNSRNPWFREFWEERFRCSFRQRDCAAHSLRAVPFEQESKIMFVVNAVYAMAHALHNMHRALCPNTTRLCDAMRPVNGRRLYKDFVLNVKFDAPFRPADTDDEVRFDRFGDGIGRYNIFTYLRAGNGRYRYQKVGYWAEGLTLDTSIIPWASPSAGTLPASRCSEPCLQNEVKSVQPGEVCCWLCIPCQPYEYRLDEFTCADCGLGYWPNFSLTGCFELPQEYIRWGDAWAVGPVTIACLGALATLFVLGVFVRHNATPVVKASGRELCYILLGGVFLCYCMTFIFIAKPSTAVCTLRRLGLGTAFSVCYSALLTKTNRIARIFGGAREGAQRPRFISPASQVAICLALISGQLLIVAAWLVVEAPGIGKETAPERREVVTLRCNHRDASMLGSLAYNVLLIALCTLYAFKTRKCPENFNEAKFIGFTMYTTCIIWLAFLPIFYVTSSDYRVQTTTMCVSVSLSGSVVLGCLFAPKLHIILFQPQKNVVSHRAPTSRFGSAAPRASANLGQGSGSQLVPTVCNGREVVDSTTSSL
# Chain of mGluR2 (Mus musculus, UniProt Q14BI2) (Q14BI2 19-872): as the sequence (Q14BI2 19-872 A548F) above, with F530A counted along it
substance,measurement,setting,value
MNI-137,Hill slope of glutamate titration,"[1]; azi-CRD sensor, + 10 μM modulator",1.10
same,Live-cell FRET max response normalized to 1mM glutamate,"[1]; azi-CRD sensor, Glutamate + 10μM MNI-137, individual values (N=18)",0.9068 and 0.8983 and 0.8561 and 0.8443 and 0.8519 and 0.8996 and 0.8605 and 0.8249 and 0.9015 and 0.9193 and 0.8494 and 0.6551 and 0.8032 and 0.7602 and 0.8055 and 0.9262 and 0.8985 and 1.016
same,Mean max response (normalized max ΔFRET),"[1]; azi-CRD, 1 mM glutamate + 10 μM modulator, normalized to 1 mM glutamate",0.86
same,Mean ΔPotency,"[1]; azi-CRD, 10μM modulator, (([modulator + glutamate]EC50 – [glutamate] EC50)/[glutamate] EC50) × 100",19.3799
same,"ΔPotency, individual cell","[1]; azi-CRD, 10μM modulator, calculated from individual cell responses",8.099 and 2.046 and -1.414 and 21.9358 and 9.829 and 20.2062 and 22.8006 and -4.008 and 2.91 and 8.964 and 24.5302 and 18.4766 and 6.37 and 10.6935 and 59.9867 and 17.6119 and -18.5365 and 122.252 and 0.316 and -3.143 and -10.9263 and 95.4432 and 15.0175
same,Effect on receptor activation (calcium imaging) in the presence of glutamate,[2]; 10 μM NAM,block receptor activation
same,"Intracellular Ca2+ Response, % 1mM Glutamate","[2]; 1mM Glutamate + 15nM MNI-137, individual experiments",73.406% and 76.302% and 82.093%
same,Mean ΔEfficacy of glutamate,"[2]; Ca2+ response, 1 mM glutamate + 15 nM modulator, ([1 mM glutamate + modulator] - [1 mM glutamate]) × 100",-22.7329
same,"ΔEfficacy of glutamate, individual experiments","[2]; Ca2+ response, 1 mM glutamate + 15 nM modulator, single replicate",-23.6976 and -17.9069 and -26.5942
same,Mean ΔPotency of glutamate,"[2]; Ca2+ response, glutamate + 15 nM modulator, (([modulator + glutamate]EC50 – [glutamate]EC50)/[glutamate]EC50) × 100",30.7718
same,"ΔPotency of glutamate, individual experiments","[2]; Ca2+ response, glutamate + 15 nM modulator, single replicate",55.4467 and 26.9701 and 9.898
same,"Intracellular Ca2+ Response (normalized to 1mM glutamate), Mean",[2]; log[Glutamate] (M) -3,0.7727
same,"Intracellular Ca2+ Response (normalized to 1mM glutamate), Mean",[2]; log[Glutamate] (M) -3.60206,0.7226
same,"Intracellular Ca2+ Response (normalized to 1mM glutamate), Mean",[2]; log[Glutamate] (M) -4.1549,0.6149
same,"Intracellular Ca2+ Response (normalized to 1mM glutamate), Mean",[2]; log[Glutamate] (M) -4.52288,0.4711
same,"Intracellular Ca2+ Response (normalized to 1mM glutamate), Mean",[2]; log[Glutamate] (M) -5,0.2107
same,"Intracellular Ca2+ Response (normalized to 1mM glutamate), Mean",[2]; log[Glutamate] (M) -5.39794,0.08277
same,"Intracellular Ca2+ Response (normalized to 1mM glutamate), Mean",[2]; log[Glutamate] (M) -5.82391,0.01181
same,"Intracellular Ca2+ Response (normalized to 1mM glutamate), Mean",[2]; log[Glutamate] (M) -6.52288,0
same,"Intracellular Ca2+ Response (normalized to 1mM glutamate), Mean",[2]; log[Glutamate] (M) -7,0
same,"smFRET Histogram, Mean","[3]; FRET 0, 0μM Glutamate + GPT/Pyruvate + 5μM MNI-137",5.11E-04
same,"smFRET Histogram, Mean","[3]; FRET 0.02, 0μM Glutamate + GPT/Pyruvate + 5μM MNI-137",6.64E-04
same,"smFRET Histogram, Mean","[3]; FRET 0.04, 0μM Glutamate + GPT/Pyruvate + 5μM MNI-137",0.00218
same,"smFRET Histogram, Mean","[3]; FRET 0.06, 0μM Glutamate + GPT/Pyruvate + 5μM MNI-137",0.00418
same,"smFRET Histogram, Mean","[3]; FRET 0.08, 0μM Glutamate + GPT/Pyruvate + 5μM MNI-137",0.00801
same,"smFRET Histogram, Mean","[3]; FRET 0.1, 0μM Glutamate + GPT/Pyruvate + 5μM MNI-137",0.01404
same,"smFRET Histogram, Mean","[3]; FRET 0.1, 15μM Glutamate + 5μM MNI-137",0.0021
same,"smFRET Histogram, Mean","[3]; FRET 0.12, 0μM Glutamate + GPT/Pyruvate + 5μM MNI-137",0.02347
same,"smFRET Histogram, Mean","[3]; FRET 0.12, 15μM Glutamate + 5μM MNI-137",0.00321
same,"smFRET Histogram, Mean","[3]; FRET 0.14, 0μM Glutamate + GPT/Pyruvate + 5μM MNI-137",0.03681
same,"smFRET Histogram, Mean","[3]; FRET 0.14, 15μM Glutamate + 5μM MNI-137",0.00506
same,"smFRET Histogram, Mean","[3]; FRET 0.16, 0μM Glutamate + GPT/Pyruvate + 5μM MNI-137",0.05131
same,"smFRET Histogram, Mean","[3]; FRET 0.16, 15μM Glutamate + 5μM MNI-137",0.00784
same,"smFRET Histogram, Mean","[3]; FRET 0.18, 0μM Glutamate + GPT/Pyruvate + 5μM MNI-137",0.06643
same,"smFRET Histogram, Mean","[3]; FRET 0.18, 15μM Glutamate + 5μM MNI-137",0.01263
same,"smFRET Histogram, Mean","[3]; FRET 0.2, 0μM Glutamate + GPT/Pyruvate + 5μM MNI-137",0.07988
same,"smFRET Histogram, Mean","[3]; FRET 0.2, 15μM Glutamate + 5μM MNI-137",0.01781
same,"smFRET Histogram, Mean","[3]; FRET 0.22, 0μM Glutamate + GPT/Pyruvate + 5μM MNI-137",0.08842
same,"smFRET Histogram, Mean","[3]; FRET 0.22, 15μM Glutamate + 5μM MNI-137",0.02498
same,"smFRET Histogram, Mean","[3]; FRET 0.24, 0μM Glutamate + GPT/Pyruvate + 5μM MNI-137",0.08863
same,"smFRET Histogram, Mean","[3]; FRET 0.24, 15μM Glutamate + 5μM MNI-137",0.03347
same,"smFRET Histogram, Mean","[3]; FRET 0.26, 0μM Glutamate + GPT/Pyruvate + 5μM MNI-137",0.08743
same,"smFRET Histogram, Mean","[3]; FRET 0.26, 15μM Glutamate + 5μM MNI-137",0.04243
same,"smFRET Histogram, Mean","[3]; FRET 0.28, 0μM Glutamate + GPT/Pyruvate + 5μM MNI-137",0.07891
